The test system of assay [1] is OVCAR3 cells. The experiment in a line: Cell Proliferation Activity Test (CyQUANT Direct), OVCAR3. As to conditions: compound 0-10 µM, 3 days, 0.2% DMSO, CyQUANT fluorescence, read-out: OVCAR-3 _IC50_nM. The assay is classed as cell-based. As to the method:
Assay 2: Cell Proliferation Activity Test
Materials and Cells: OVCAR3 cells were purchased from Nanjing Cobioer Biosciences Co., Ltd. RPMI-1640 medium, fetal bovine serum, and the CyQUANT Direct Cell Proliferation Assay kit were purchased from Thermo Fisher Scientific, USA; 96-well cell culture plates were sourced from Coming, USA.
Cell Culture: OVCAR3 cells were cultured with RPMI-1640 medium containing 10% fetal bovine serum and incubated in a 5% CO2 incubator at 37°C. Only cells in the logarithmic growth phase could be used for the test.
Cell Proliferation Activity Test:
OVCAR3 cells were inoculated into a 96-well cell culture plate at 90 µL per well and incubated overnight in a 5% CO2 incubator at 37°C. The compound powder was dissolved in DMSO to prepare a stock solution of 10 mM. Then gradient dilution was performed for the compounds in the microplate to achieve a final concentration of 0-10 µM. 10 µL of cell culture medium containing compounds was added to each well to make the final DMSO content 0.2%. The cell plates were incubated in a 5% CO2 incubator at 37°C for 3 days. 100 µL of CyQUANT detection reagent was added to each well, reacted at 37°C for 60 min, and fluorescence detection was performed using the PerkinElmer Envision.

Assay [2] deals with T1, Human KIF18A (amino acid sequence 1-417) (Homo sapiens, UniProt Q8NI77).
T1 construct: purchased Viva Biotech (Shanghai) Ltd
T1 sequence (Q8NI77 1-417): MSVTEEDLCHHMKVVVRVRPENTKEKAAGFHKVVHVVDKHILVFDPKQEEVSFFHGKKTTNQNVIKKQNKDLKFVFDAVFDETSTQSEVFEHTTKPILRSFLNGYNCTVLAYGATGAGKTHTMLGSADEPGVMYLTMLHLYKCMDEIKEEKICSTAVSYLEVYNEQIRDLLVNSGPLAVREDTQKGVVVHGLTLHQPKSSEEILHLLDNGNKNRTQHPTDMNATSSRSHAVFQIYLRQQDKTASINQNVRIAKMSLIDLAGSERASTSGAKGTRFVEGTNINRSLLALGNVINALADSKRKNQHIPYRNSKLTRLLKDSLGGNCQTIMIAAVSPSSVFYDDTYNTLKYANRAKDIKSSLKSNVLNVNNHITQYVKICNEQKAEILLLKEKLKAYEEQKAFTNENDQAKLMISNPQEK
The assay can be described thus: Enzymatic Activity Test (ADP-Glo, microtubule-stimulated KIF18A ATPase). It counts as biochemical. As to conditions: 60 µg/mL microtubules, 25 µM ATP, 2.5 nM KIF18A protein, 120 min at ambient temperature, chemiluminescence; read-out: KIF 18A IC50. As to the method: Assay 1: Enzymatic Activity Test
Materials: Human KIF18A (amino acid sequence 1-417) was purchased from Viva Biotech (Shanghai) Ltd.; the ADP-Glo™ protein kinase kit was acquired from Promega, USA; tubulin was sourced from Cytoskeleton, USA; and the 384-well assay plate and Envision multifunctional microplate reader were obtained from PerkinElmer, USA.
Enzymatic Activity Test: The compound powder was dissolved in DMSO to prepare a stock solution of 10 mM. Then gradient dilution was performed for the compounds in the microplate to achieve a final concentration of 0-10 µM. Then, 2.5 µL each of tubulin, compound, ATP, and KIF18A protein were added to the microplate in sequence for reaction at ambient temperature for 120 min. The final concentrations in the enzyme reaction were 60 µg/mL for microtubules, 25 µM for ATP, and 2.5 nM for KIF18A protein. After the enzyme reaction, 10 µL of ADP-GLO reaction reagent was added to each well and incubated at room temperature for 30 min. After that, 20 µL of detection reagent was added to each well and incubated at room temperature for 30 min in the dark. Finally, chemiluminescence detection was performed using the PerkinElmer Envision.
Background: In ADP-Glo the light output rises with the ADP produced.

Assay [3] deals with HT29 cells. The assay can be described thus: CyQuant Cell Proliferation Activity Test, HT29. It counts as cell-based. As to conditions: HT29 cells 2000 per well, initial concentration 3000 nM, 3-fold dilution, 3 days, 0.2% DMSO, read-out: HT29_IC50 _nM. As to the method:
Assay 3: CyQuant Cell Proliferation Activity Test
Materials and Cells: HT29 cells were purchased from Nanjing Cobioer Biosciences Co., Ltd.; RPMI-1640 medium, fetal bovine serum, Trypsin-EDTA (0.25%), 96-well plates, and CyQuant reagents were purchased from ThermoFisher (USA); DMSO was purchased from SIGMA (USA).
Cell Culture: HT29 cells were cultured with RPMI-1640 containing 10% fetal bovine serum under the condition of 37°C and 5% CO2. Only cells in the logarithmic growth phase could be used for the test.
Cell Proliferation Activity Test: CyQuant reagent was used to detect the proliferation inhibitory activity of compounds on HT29 cells. The cell density was adjusted, and 100 µL per well was inoculated into a 96-well plate (HT29 at 2000 cells per well), then incubated overnight at 37°C and 5% CO2. Add compounds of various target concentrations (initial concentration of 3000 nM, 3-fold dilution, 9 concentration gradients), and make the DMSO content 0.2%. The cell plate was incubated at 37°C in 5% CO2 for 3 days. CyQuant reagent was added and incubated for 1 h. The plates were read by Envision, and IC50 was calculated using XLFIT.

Drawing on patent EP4755892A1, “KINESIN KIF18A INHIBITOR AND USE THEREOF” (Shanghai Apeiron Therapeutics Company Limited, priority 2023, dated 2025), this text covers IC50 for 14 molecules.

Structures are written as SMILES. Where two headings read alike, the source gives them in different places. Where only a bound is given, the exact number is not on record here.

Consider `Cc1cc2nc(n1)N1CCC(F)(F)C(C=CCC3CCN(CC3)c3cc(NS(=O)(=O)CCO)ccc3C(=O)N2)C1` (stereo not drawn) [Example 18, N-(1^4,1^4-difluoro-2^6-methyl-4-oxo-3-aza-2(2,4)-pyrimidin-1(1,3),6(1,4)-dipiperidin-5(1,2)-benzeneheterocyclonon-8-en-5^4-yl)-2-hydroxyethane-1-sulfonamide], for which the figures for the IC50 in assay [1], in assay [2] and in assay [3] were 31 nM, 94 nM and 34 nM, respectively.
With `O=C1Nc2cccc(c2)S(=O)(=O)N2CCN(CCC3CCN(CC3)c3cc(NS(=O)(=O)CCO)ccc31)CC2` [Example 17, N-(6,6-dioxo-9-oxo-6-thia-8-aza-5(1,4)-piperazin-2(1,4)-piperidin-1(1,2),7(1,3)-diphenylheterocyclononane-1^3-yl)-2-hydroxyethane-1-sulfonamide], the IC50 is over 3000 nM in assay [1] (Homo sapiens, OVCAR-3, 72 h); 605 nM in assay [2]; over 3000 nM in assay [3] (Homo sapiens, HT-29, 72 h).
As to `Cc1cc2nc(n1)N1CCCC(C=CCC3CCN(CC3)c3cc(NS(=O)(=O)CCO)ccc3C(=O)N2)C1` (stereo not drawn) [Example 1D, 2-Hydroxy-N-((1^3R,Z)-2^6-methyl-4-oxo-3-aza-2(2,4)-pyrimidin-1(1,3),6(1,4)-dipiperidin-5(1,2)-benzoaza-8-en-5^4-yl)ethane-1-sulfonamide], the IC50 was found to be 506 nM in assay [1], 246 nM in assay [2] and 746 nM in assay [3].
`Cc1cc2nc(n1)N1CCC(F)(F)C(CCC=C3CCN(CC3)c3cc(NS(=O)(=O)CCO)ccc3C(=O)N2)C1` (stereo not drawn) [Example 20, N-(1^4,1^4-difluoro-2^6-methyl-4-oxo-3-aza-2(2,4)-pyrimidin-1(1,3),6(1,4)-dipiperidin-5(1,2)-benzeneheterocyclononane-5^4-yl)-2-hydroxyethane-1-sulfonamide]: the IC50 in assay [1] (Homo sapiens, OVCAR-3, 72 h) was over 3000 nM; in assay [2], 2920 nM; in assay [3] (Homo sapiens, HT-29, 72 h) it was over 3000 nM.
With `Cc1cc2nc(n1)N1CCC(F)(F)C(CCCC3CCN(CC3)c3cc(NS(=O)(=O)CCO)ccc3C(=O)N2)C1` (stereo not drawn) [Example 23B, N-((1^3R)-1^4,1^4-difluoro-2^6-methyl-4-oxo-3-aza-2(2,4)-pyrimidin-1(1,3),6(1,4)-dipiperidin-5(1,2)-benzeneheterocyclononane-5^4-yl)-2-hydroxyethane-1-sulfonamide], the IC50 in assay [1] worked out at 28 nM; in assay [2], 71.5 nM; in assay [3], 32 nM.
On to `Cc1cc2nc(n1)N1CCCC(C=CCC3CCN(CC3)c3cc(NS(=O)(=O)CCO)ccc3C(=O)N2)C1` (stereo not drawn) [Example 1C, 2-Hydroxy-N-((1^3S,Z)-2^6-methyl-4-oxo-3-aza-2(2,4)-pyrimidin-1(1,3),6(1,4)-dipiperidin-5(1,2)-benzoaza-8-en-5^4-yl)ethane-1-sulfonamide], for which the IC50 in assay [1] is 61 nM; in assay [2], 36 nM; in assay [3], 78 nM.
Consider `Cc1cc2nc(n1)N1CCCC(CCC3CCN(CC3)c3cc(NS(=O)(=O)CCO)ccc3C(=O)N2)C1` (stereo not drawn) [Example 5, 2-Hydroxy-N-(1^1-methyl-7-oxo-8-aza-1(2,4)-pyrimidin-2(1,3),5(4,1)-dipiperidin-6 (1,2)-benzeneheterocyclooct-6^5-yl)ethane-1-sulfonamide], for which the IC50 in assay [1] (Homo sapiens, OVCAR-3, 72 h) turned out to be 122 nM; in assay [2], 38 nM; in assay [3] (Homo sapiens, HT-29, 72 h), 132 nM.
For the molecule `O=C1Nc2cccc(c2)S(=O)(=O)NCC=CC2CCN(CC2)c2cc(NS(=O)(=O)CCO)ccc21` [Example 15, (E)-N-(6,6-dioxo-3-oxo-6-thia-4,7-diaza-1(1,4)-piperidin-2(1,2),5(1,3)-diphenylheterocyclodec-9-en-2^5-yl)-2-hydroxy-1-ethanesulfonamide], the IC50 in assay [1] (Homo sapiens, OVCAR-3, 72 h) is over 3000 nM; in assay [2] it was 275 nM; in assay [3] (Homo sapiens, HT-29, 72 h), over 3000 nM.
In the case of `Cc1cc2nc(n1)N1CCCC(COCC3CCN(CC3)c3cc(NS(=O)(=O)CCO)ccc3C(=O)N2)C1` (stereo not drawn) [Example 28, 2-Hydroxy-N-(2^6-methyl-4-oxo-8-oxa-3-aza-2(2,4)-pyrimidin-1(1,3),6(1,4)-dipiperidin-5(1,2)-benzeneheterocyclononane-5^4-yl)ethane-1-sulfonamide], the IC50 in assay [1] (Homo sapiens, OVCAR-3, 72 h) was determined as 506 nM; in assay [2], 229 nM; in assay [3] (Homo sapiens, HT-29, 72 h) it was 639 nM.
For `O=C1Nc2cccc(c2)S(=O)(=O)NCCCC2CCN(CC2)c2cc(NS(=O)(=O)CCO)ccc21` [Example 16, N-(6,6-dioxo-3-oxo-6-thia-4,7-diaza-1(1,4)-piperidin-2(1,2),5(1,3)-diphenylheterocyclodecane-2^5-yl)-2-hydroxy-1-ethanesulfonamide], the IC50 in assay [1] (Homo sapiens, OVCAR-3, 72 h) was over 3000 nM; in assay [2] it was 588 nM; in assay [3] (Homo sapiens, HT-29, 72 h), over 3000 nM.
`Cc1cc2nc(n1)N1CCC(F)(F)C(C=CCC3CCN(CC3)c3cc(NS(=O)(=O)CCO)ccc3C(=O)N2)C1` (stereo not drawn) [Example 18A, N-((1^3S,E)-1^4,1^4-difluoro-2^1-methyl-4-oxo-3-aza-2(2,4)-pyrimidin-1(1,3),6(1,4)-dipiperidin-5(1,2)-benzeneheterocyclononane-8-en-5^4-yl)-2-hydroxyethane-1-sulfonamide]: the IC50 in assay [1], in assay [2] and in assay [3] was over 3000 nM each time.
Regarding `Cc1cc2nc(n1)N1CCCC(CCCC3CCN(CC3)c3cc(NS(=O)(=O)CCO)ccc3C(=O)N2)C1` (stereo not drawn) [Example 3A, 2-Hydroxy-N-((1^3R)-2^6-methyl-4-oxo-3-aza-2(2,4)-pyrimidin-1(1,3),6(1,4)-dipiperidin-5(1,2)-benzeneheterocyclononane-5^4-yl)ethane-1-sulfonamide], the IC50 in assay [1] came out at 1610 nM; in assay [2], 26 nM; in assay [3], 1320 nM.
Turning to `Cc1cc2nc(n1)N1CCC(F)(F)C(C=CCC3CCN(CC3)c3cc(NS(=O)(=O)CCO)ccc3C(=O)N2)C1` (stereo not drawn) [Example 18C, N-((1^3S,Z)-1^4,1^4-difluoro-2^6-methyl-4-oxo-3-aza-2(2,4)-pyrimidin-1(1,3),6(1,4)-dipiperidin-5(1,2)-benzeneheterocyclononane-8-en-5^4-yl)-2-hydroxyethane-1-sulfonamide], the figures for the IC50 in assay [1], in assay [2] and in assay [3] were 29 nM, 41 nM and 31 nM, respectively.
In the case of `Cc1cc2nc(n1)N1CCC(F)(F)C(=CCCC3CCN(CC3)c3cc(NS(=O)(=O)CCO)ccc3C(=O)N2)C1` [Example 21, N-(1^4,1^4-difluoro-2^6-methyl-4-oxo-3-aza-2(2,4)-pyrimidin-1(1,3),6(1,4)-dipiperidin-5(1,2)-benzeneheterocyclonon-9-en-5^4-yl)-2-hydroxyethane-1-sulfonamide], the IC50 came out at 744 nM in assay [1] (Homo sapiens, OVCAR-3, 72 h); 305 nM in assay [2]; 703 nM in assay [3] (Homo sapiens, HT-29, 72 h).
